A melting point compilation (Tetko et al.; mined from patent text by program, amines drawn as free bases though some values may be those of a salt)

First: CCCCCCCCOC(=O)C=Cc1ccc(N(C)C)cc1
Second: CCCCCCOc1ccc(NC(=O)CC(=O)C(C)(C)C)cc1
The melting point of the first is lower: 48 to 49.5 °C for the first, 70 to 72 °C for the second.

Compared with COc1ccc(C(C(=O)OC(C)(C)C)N(C(=O)CNC(=O)Nc2cccc(C)c2)c2ccccc2)cc1 (racemic), Cc1ccc(C(=O)N[C@@H](COC(C)(C)C)NC(=S)Nc2cccc([N+](=O)[O-])c2)cc1 is lower in melting point: 206 °C for the first, 169 to 171 °C for the second.

First: CNC(=O)C=Cc1ccc(C(=O)O)cc1
Second: COC(=O)C(C=CC(=O)O)=CNc1ccc(Cl)cc1
The melting point of the first is higher: 270 to 273 °C for the first, 160 to 161 °C for the second.

First: Nc1cccc(S(=O)(=O)NC(=O)C(F)(F)F)c1
Second: CC(C)(C)c1cccc(S(=O)(=O)Nc2cc(C(F)(F)F)ccc2I)c1
The melting point of the first is lower: 106 to 108 °C for the first, 134 °C for the second.

O=C(O)CCCc1c([N+](=O)[O-])cc(O)c(O)c1[N+](=O)[O-] and O=C(O)C(Cl)=C(Cl)C(O)=NCCc1ccc([N+](=O)[O-])cc1 cannot be ordered by melting point: 165 to 170 °C for the first, 166 °C for the second.

First: Fc1ccc2c(c1)C(OCC1CC1)(C(F)F)c1cc(Cl)cnc1N2 (configuration not stated)
Second: O=C1CCc2ncc3cc(F)ccc3c2N1
The melting point of the first is lower: 169 to 170 °C for the first, 266 to 267 °C for the second.

Compared with CCc1c(NC(=O)c2cc(S(C)(=O)=O)ccc2OCC(C)C)c(C(N)=O)nn1CCN1CCOCC1, Cc1c(SCCN2CCOCC2)ccnc1CSc1nc2cc(C(=O)O)ccc2[nH]1 is lower in melting point: 200 to 203 °C for the first, 120 to 124 °C for the second.

First: COc1ccc2c(C3=C(c4cn(C)c5cc([N+](=O)[O-])ccc45)C(=O)NC3=O)cn(C)c2c1
Second: O=c1c(Cl)c(Cl)cnn1-c1ccc([N+](=O)[O-])cc1
The melting point of the first is higher: 308 to 310 °C for the first, 221 °C for the second.

First: COCCNC(=O)c1cc(F)cc(-c2cccc3cc(Cc4cc(F)cc(Cl)c4)sc23)c1
Second: Cc1ccc(C(=O)Nc2cccc(C(F)(F)F)c2)cc1-c1ccc2ncsc2c1
The melting point of the first is lower: 72 to 73 °C for the first, 102 to 104 °C for the second.

Compared with CCOC(=O)c1cn(-c2ccc(F)cc2F)c2nc(N3CCC(NC(C)=O)C3)c(F)cc2c1=O (configuration not stated), CCOC(=O)c1cc2c3ccccc3n(Cc3ccccc3)c2nc1N1CCCCC1 is lower in melting point: 233 to 236 °C for the first, 155 to 156 °C for the second.

First: Cc1cc(Cc2cnc(NCCCCc3ncc(Br)cc3C)[nH]c2=O)cnc1CO
Second: O=c1nc(NCCCOc2cc(CN3CCCCC3)ccn2)c2ccccc2[nH]1
The melting point of the first is lower: 136 to 141 °C for the first, 189 to 192 °C for the second.

First: C=CC[C@H]1Cc2c(OCOC)cccc2C(O)O1 (some centres not stated)
Second: COc1ccccc1OCC(O)CN1CCC(N2CCNC2=O)CC1 (configuration not stated)
The melting point of the first is lower: 72 to 74 °C for the first, 138 °C for the second.

First: CCOC(=O)N1CCN(C2Cc3ccccc3Sc3cc(Cl)c(Cl)cc32)CC1 (configuration not stated)
Second: CN1CCN(C(=O)c2cc3ccccc3c(=O)[nH]2)CC1
The melting point of the first is higher: 184 to 186 °C for the first, 170 to 172 °C for the second.

First: COc1ccc(C[C@@H](COC(C)=O)NC(=O)c2ccnc(-n3nc(-c4cccnc4)c4ccccc4c3=O)c2)cc1OC
Second: CNc1nc(-c2cccc(-c3ccc(S(C)=O)cc3)c2)c2cc(OC)c(OC)cc2n1 (configuration not stated)
The melting point of the first is lower: 85 to 87 °C for the first, 153 to 155 °C for the second.

First: Cc1nccn1CC1CCc2c(c3ccccc3n2C)/C1=N/O (configuration not stated)
Second: Cc1cnc2c3c(nccc13)C(=O)c1ccccc1-2
The melting point of the first is higher: 231 to 233 °C for the first, 208 to 210 °C for the second.

First: O=C1CCCCN1S(=O)(=O)c1ccc(N2CCCCCCC2)cc1
Second: COC(=O)c1cccc(S(=O)(=O)N2CCC(N3N=C(c4ccc(OC)c(OC)c4)C(C)(C)C3=O)CC2)c1
The melting point of the first is lower: 150 to 152 °C for the first, 214 °C for the second.

First: Cn1nc(N)c2c(c1=O)OCCNC2Cc1ccccc1 (configuration not stated)
Second: Cn1nc(N)c2c(-c3ccccc3)cc(N3CCOCC3)nc21
The melting point of the first is higher: 195 to 196 °C for the first, 149 to 152 °C for the second.

First: CCCc1nn(CC)c2c(=O)n(CCOc3cccc(OC(C)(C)C(=O)O)c3)c(C)nc12
Second: CCOCc1nc2c(N)nc3cc(OCCNC(=O)OC(C)(C)C)ccc3c2n1CC1COC(C)(C)O1 (configuration not stated)
The melting point of the first is higher: 147 to 149 °C for the first, 82 to 84 °C for the second.

First: CCCCCCCCCCCCSCCCN=C=O
Second: CCCCCCCCCCCCCCCCSCC(CO)NC(=O)OC (configuration not stated)
The melting point of the first is higher: 91 to 92 °C for the first, 55 to 56 °C for the second.

First: CCOC(=O)c1cccc(NC(=O)Nc2ccc(-n3nc(C(F)(F)F)cc3C(F)(F)F)cc2)c1
Second: CCN(CC)Cc1cc(NC(=O)Nc2ccc(Oc3cc(NC)ncn3)cc2)cc(C(F)(F)F)c1
The melting point of the first is higher: 211 to 212 °C for the first, 68 to 70 °C for the second.

First: Cc1ccc(-c2cccc(C#N)c2)cc1
Second: Cc1nc(-c2ccc(O)cc2)cc(-c2cccc(Br)c2)c1C#N
The melting point of the first is lower: 59 to 61 °C for the first, 214 to 218 °C for the second.

First: COCOc1ccc(-c2ccc(C=C3SC(=O)NC3=O)cc2)cc1C12CC3CC(CC(C3)C1)C2
Second: C=CCOc1cccc(-c2c(O)c3ccc(Cl)cc3[nH]c2=O)c1
The melting point of the first is lower: 253 to 254 °C for the first, greater than 300 °C for the second.

Compared with Cc1c(=O)o[n-][n+]1CCSC1CCCCC1, CSc1ncc(CN)c(NC2CCCC2)n1 is lower in melting point: 82 to 83 °C for the first, 58 to 60 °C for the second.

First: Cc1oc(-c2ccccc2)nc1COc1ccc(Cc2nc(CCC(=O)O)c(-c3ccccc3)s2)cc1
Second: Cc1oc(-c2ccccc2)nc1CCOc1ccc(COc2ncccc2CC(=O)O)cc1
The melting point of the first is lower: 119 to 120 °C for the first, 134 to 135 °C for the second.

Compared with COC(=O)NS(=O)(=O)Oc1c(C(C)C)cccc1C(C)C, CC(C)c1cccc(C(C)C)c1NC(=S)NC1CCCC(C(F)(F)F)C1 (configuration not stated) is lower in melting point: 92 to 95 °C for the first, 67 to 75 °C for the second.

Compared with COC(=O)c1ccccc1SC1=C(O)CC(CCc2ccccc2)(c2ccccc2)OC1=O (configuration not stated), Cc1ccc(OCc2ccccc2)c2cnn(Cc3ccccc3)c12 is higher in melting point: 91 to 92 °C for the first, 92 to 93 °C for the second.

First: Cc1nc(N(C)C=O)sc1C(=O)CBr
Second: COC(=O)c1cc2ccoc2s1
The melting point of the first is lower: 80 to 82 °C for the first, 86 to 88 °C for the second.

Compared with CCNc1cccnc1N1CCN(C(=O)c2ccc(C(=O)NCCO)cn2)CC1, CS(=O)(=O)Nc1cnn(CCCCN2CCN(c3ncccn3)CC2)c1 is lower in melting point: 178 to 180 °C for the first, 132 °C for the second.

Compared with CN(C)C1Cc2cc(Br)cc([N+](=O)[O-])c2NC1=O (configuration not stated), Cc1cc(-c2ccccc2C#N)ccc1[N+](=O)[O-] is lower in melting point: 162 to 165 °C for the first, 128 to 136 °C for the second.

Compared with Cc1cc(C#N)cc(C(=O)Nc2ccc(F)c(Cl)c2)n1, O=C1CCC(c2ccc(C(=O)Nc3ccccc3F)cc2)=NN1 is higher in melting point: 204 °C for the first, 242 to 244 °C for the second.

Compared with C=CCNc1nc(NCC=C)c2scc(CC)c2n1, COC(=O)CCCOc1ccc2nc3[nH]c(=O)[nH]c3cc2c1 is higher in melting point: 55 °C for the first, 299 to 301 °C for the second.

Compared with Cc1ccc(C2=CCC(O)CC2)cc1 (configuration not stated), Oc1ccc(C2CCOCC2)cc1 is higher in melting point: 96.5 to 97.5 °C for the first, 164 °C for the second.

First: O=C1OC(CCO)C(O)=C1OCc1ccccc1 (configuration not stated)
Second: O=[N+]([O-])c1ccc(OCc2ccccc2)cc1OCc1ccccc1
The melting point of the first is lower: 98 to 99 °C for the first, 101 to 103 °C for the second.

First: CSCc1cc(O)nc(CSC)n1
Second: CC(C)=NOCc1nc2c(N)nc3cc(Br)ccc3c2s1
The melting point of the first is lower: 101 to 102 °C for the first, 211 to 213 °C for the second.

First: C#CCC(=C1NCCCS1)[N+](=O)[O-]
Second: c1cn(CC2(CCCC3CCCC3)SCCS2)cn1
The melting point of the first is lower: 132 to 135 °C for the first, 136 to 137 °C for the second.

First: CCC1Cn2c(ncc(-c3nnn[nH]3)c2=O)-c2ccccc21 (configuration not stated)
Second: Cc1ccccc1-c1c(O)c2ccccc2[nH]c1=O
The melting point of the first is lower: 254 to 258 °C for the first, greater than 300 °C for the second.

First: CC12CCCCC1CCC1C2CCC2(C)C(NCc3ccccc3)CCC12 (configuration not stated)
Second: CCCCS(=O)(=O)NCC1CCN(C(=O)OCc2ccccc2)CC1
The melting point of the first is higher: 85.5 to 87.5 °C for the first, 83 to 85 °C for the second.

First: CC(C)c1nc(CO)n(Cc2ccccc2[N+](=O)[O-])c1Sc1cc(Cl)cc(Cl)c1
Second: Cc1ccc2cc(-c3cccc4ccccc34)nc(Cl)c2c1
The melting point of the first is higher: 160 to 166 °C for the first, 93 °C for the second.

Compared with CCOC(=O)C(F)(F)C(=O)[C@H](Cc1ccccc1)NC(=O)Cn1c(-c2cccc(C)c2)ncc(NC(=O)OCc2ccccc2)c1=O, Cc1ccccc1-n1cc(-c2ccccc2)c(CC(=O)O)n1 is higher in melting point: 138 to 140 °C for the first, 177 °C for the second.

First: CC(C)(C)OC(=O)N1CCN(Cc2ccc(NC(=O)Oc3ccccc3)c(C(F)(F)F)c2)CC1
Second: COC1(c2cccc(OCc3ccc4ccccc4c3)c2)CCN(CC#N)C1 (configuration not stated)
The melting point of the first is higher: 143 to 147 °C for the first, 76 to 77 °C for the second.

Compared with CC(n1cncn1)C(O)(COc1ccc(Cl)cc1)C(C)(C)C (configuration not stated), CCCCSC(Cn1cncn1)c1ccc(Cl)cc1Cl (configuration not stated) is higher in melting point: 80 to 104 °C for the first, 143 °C for the second.

First: COC(=O)Nc1cnc2c(NC(=O)c3c(Cl)cccc3Cl)cccc2c1-n1ccnc1
Second: O=c1cc(-c2cc3ccccc3cc2O)oc2ccccc12
The melting point of the first is higher: 236 to 238 °C for the first, 202 °C for the second.

First: COc1cccc(O[C@@H]2COc3ccc(OCc4ccccn4)cc3[C@@H]2O)c1 (relative stereo)
Second: CON=Cc1ccc2c(c1)ncn2-c1cccc(-c2ccoc2)c1
The melting point of the first is lower: 105 to 107 °C for the first, 147 to 148 °C for the second.

Compared with O=C1C=C(c2cc(F)c(Br)cc2F)CC1, COc1cc2c(cc1OC)-c1cc3ccccc3nc1CC2 is lower in melting point: 129 to 131 °C for the first, 55 to 56 °C for the second.

Brc1ccc2c(c1)C=NC=CN2 and CC[C@@H](CN1CCCc2cc(Br)ccc21)NS(=O)(=O)c1c(C)cc(C)cc1C cannot be ordered by melting point: 135 to 138 °C for the first, 135 °C for the second.

First: CCc1ccc(CCOc2cccc(NC3SC(=O)NC3=O)c2)nc1 (configuration not stated)
Second: CCCCC1Cc2c(c3cccnc3n(-c3ccc(F)cc3)c2=O)O1 (configuration not stated)
The melting point of the first is lower: 140 to 142 °C for the first, 258 to 260 °C for the second.

First: CC1(C)c2cc(O)ccc2OC1O (configuration not stated)
Second: CCC(CC)C(NS(=O)(=O)c1ccc(Cl)s1)c1ccnn1Cc1ccc(O)cc1 (configuration not stated)
The melting point of the first is lower: 78 to 81 °C for the first, 90 to 92 °C for the second.

Compared with Cc1ccc2ncc(CSc3ccc(N)cc3)n2c1, CSc1nccc(-c2c(-c3ccc(F)cc3)nc3occn23)n1 is higher in melting point: 128 to 129 °C for the first, 144 to 145 °C for the second.

Compared with CCN(CCO[N+](=O)[O-])C(=O)COC(=O)c1cc(S(N)(=O)=O)c(Cl)cc1NCc1ccco1, O=S(=O)(c1ccc2ccccc2c1)N1C[C@H](O)C[C@H]1COCc1ccccc1 is higher in melting point: 60 to 62 °C for the first, 124 to 126 °C for the second.

First: O=C(O)[C@@H](O)CNC(=O)C(F)(F)F
Second: O=S(=O)(c1ccc(Cl)cc1)C(c1ccc(CO)cn1)c1cc(F)ccc1F (configuration not stated)
The melting point of the first is lower: 142 to 143 °C for the first, 151 to 152 °C for the second.

First: Cc1cc(C)c(C2C(=O)N3CCCCN3C2=O)c(C)c1
Second: O=C(CC1=C(n2nc(-c3c(-c4ccccc4)nn4ccccc34)ccc2=O)CCCC1)N1CCN(C(c2ccccc2)(c2ccccc2)c2ccccc2)CC1
The melting point of the first is lower: 247 to 248 °C for the first, 250 °C for the second.
